From patent US7410986B2, “4-6-diphenyl pyridine derivatives as antiinflammatory agents” (Bayer Aktiengesellschaft, priority 2000, dated 2008)
pIC50: −log10 of the molar value. Like-named read-outs stand apart in the source and are kept apart here.

What was measured:
[1] = test system: RANTES production in response to TNF-α from A549 cells; experiment: RANTES production in response to TNF-α from A549 cells; type: cell-based, human; conditions: 100 ng/ml TNF-α, compounds of about 40 to 90% purity, read-out: Cellular activity grade (A549, IC50)
human IKK-β = target: T1, human IKK-β (Homo sapiens, UniProt O14920); experiment: IKK-β kinase inhibitory assay; type: biochemical; conditions: compounds of about 40 to 90% purity, read-out: In vitro activity grade (invitro, IC50)
T1 construct: A cDNA fragment encoding human IKK-β open reading frame was generated by PCR; His; made in house; host or cells: Sf21 insect cells (baculovirus); the GST-IκBα substrate was made in E. coli
T1 sequence (O14920 1-756): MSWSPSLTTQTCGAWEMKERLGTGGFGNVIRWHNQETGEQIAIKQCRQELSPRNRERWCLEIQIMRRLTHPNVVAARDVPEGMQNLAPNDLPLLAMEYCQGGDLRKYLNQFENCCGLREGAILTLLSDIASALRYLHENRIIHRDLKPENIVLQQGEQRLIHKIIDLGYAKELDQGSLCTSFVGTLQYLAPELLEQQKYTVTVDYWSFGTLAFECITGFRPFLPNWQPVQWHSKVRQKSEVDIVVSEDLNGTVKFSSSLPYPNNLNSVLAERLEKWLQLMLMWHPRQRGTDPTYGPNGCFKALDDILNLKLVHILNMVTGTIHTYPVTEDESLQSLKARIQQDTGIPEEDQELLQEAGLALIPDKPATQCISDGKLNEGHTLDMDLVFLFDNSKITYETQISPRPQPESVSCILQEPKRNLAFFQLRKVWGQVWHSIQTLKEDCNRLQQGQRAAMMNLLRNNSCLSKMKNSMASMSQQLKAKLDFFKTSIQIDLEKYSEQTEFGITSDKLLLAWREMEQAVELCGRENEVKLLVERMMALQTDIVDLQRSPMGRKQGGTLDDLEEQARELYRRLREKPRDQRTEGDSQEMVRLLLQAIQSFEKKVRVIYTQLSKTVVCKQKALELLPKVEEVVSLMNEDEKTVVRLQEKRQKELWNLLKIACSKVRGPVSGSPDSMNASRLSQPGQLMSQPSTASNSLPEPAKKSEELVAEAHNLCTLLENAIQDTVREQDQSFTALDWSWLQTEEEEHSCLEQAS
Text: IKK-β Kinase Inhibitory Assay.
• (1) Preparation of IKK-β Kinase Protein. • A cDNA fragment encoding human IKK-β open reading frame was generated by PCR with the use of a pair of primers designed from the published sequence (Woronicz J D et al. (1997) Science 278,866-869). A template was obtained from Quickclone cDNA (Clontech) using Elongase™ Amplification kit (Life Technologies). The DNA fragments generated by PCR were gel-purified and subcloned into pBluescript. The cDNA fragment cloned in pBluescript was inserted into pcDNA3.1/His C KpnI/NotI, and transferred into pVL1393 SmaI/XbaI (Pharmingen) to construct a baculovirus transfer vector. Then the vector, together with the linearized baculovirus (BaculoGold™, Pharmingen) was used to transfect Sf21 cells (Invitrogen, San Diego, Calif.). Generated recombinant baculovirus was cloned and amplified in Sf21 cells, grown in TNM-FH insect cell medium (Life Technologies, Inc.) supplemented with 10% FCS, […] Gentamycin, 0.1% Pluronic F-68 (Life Technologies, Inc.) as suspension culture (200 ml in 1 L Erlenmeyer flask; 27° C.; 130 rpm). Sf21 cells were infected with this amplified virus with a multiplicity of infection of 5 following standard protocols (Crossen R, Gruenwald S (1997) Baculovirus Expression Vector System Instruction Manual, Pharmingen Corporation) and harvested 48 hrs. later. The cells were lysed to obtain the produced chimeric protein of IKK-β kinase fused by histidine (His-tagged IKK-beta). • (2) The Preparation of Purified GST-IκBα Fusion Proteins • An expression vector containing the nucleotide sequence encoding fusion protein of GST with amino acid residues 1 to 54 of IκBα under the control of an IPTG-inducible promoter was constructed. The expression vector was introduced in E. coli and the transformant was cultured and lysed to obtain a GST-IκBα fusion protein. Then the resulting GST-IκBα fusion protein was purified and biotinated for kinase assay. • (3) The Measurement of IKK-β Kinase Activity • The 96-well format kinase assay of IKK-β was performed to test the inhibitory activity of the compounds of the present invention. First, 5 μl of a test compound was put in the presence of 2.5% dimethyl sulfoxide (DMSO) in each well in a U-bottomed 96-well plate (Falcon). For control wells of background (BG) and total phosphorylation (TP), 5 μl of 2.5% DMSO was put. Recombinant IKK-β (final 0.6 μg/ml) and bio-GST-IκBα (1-54) (final 0.2 μM) were diluted in 25 μl of 2×kinase buffer β (40 mM Tris-HCl, pH 7.6, 40 mM MgCl2, 40 mM β-glycerophosphate, 40 mM p-nitrophenyl-phosphate, 2 mM EDTA, 40 mM creatine phosphate, 2 mM DTT, 2 mM Na3VO4, 0.2 mg/ml BSA and 0.8 mM phenylmethylsulfonyl fluoride) and transferred to the 96-well plate. Bio-GST-IκBα (1-54) in 25 μl of 2×kinase buffer β without IKK-β was transferred to BG wells. Then 20 μl of 12.5 μM ATP, 62.5 μCi/ml [γ-^33P] ATP (Amersham Pharmacia Biotech) was added and the resulting mixture was incubated for 2 hrs. at room temperature. The kinase reactions were terminated by the addition of 150 μl of termination buffer (100 mM EDTA, 1 mg/ml BSA, 0.2 mg NaN3). One handred and fifty μl of the sample was transferred to a streptavidin-coated, white MTP (Steffens Biotechniche Analysen GmbH #08114E14. FWD) to capture the biotinylated substrates. After 1 hr. of incubation, non-bound radioactivity was eliminated by washing the wells five times with 300 μl of washing buffer including 0.9% NaCl and 0.1% (w/v) Tween-20 with the use of a MW-96 plate washer (BioTec). The bound radioactivity was determined after the addition of 170 μl MicroScint-PS scintillation cocktail (Packard) using a TopCount scintillation counter. Syk Tyrosine Kinase Inhibitory Assay for Selectivity. • (1) Preparation of Syk Protein • A cDNA fragment encoding human Syk openreading frame was cloned from total RNA of human Burkitt's lymphoma B cell lines, Raji (American Type Culture Collection), with the use of RT-PCR method. […]

Row | Structure (SMILES) | pIC50 ([1]; Homo sapiens, A549, 24 h) | pIC50 (human IKK-β) | pIC50 ([1]; 24 hrs)
1 | N#Cc1c(-c2cccc(NC(=O)CNCCCO)c2)cc(-c2ccccc2O)nc1N [Example 4-20] | < 5.00 | > 6.30 | 
2 | N#Cc1c(-c2cccc(NC(=O)CCNCC3CC3)c2)cc(-c2ccccc2O)nc1N [Example 4-21] | 5.00 to 6.00 | 5.70 to 6.30 | 
3 | N#Cc1c(-c2cccc(NC(=O)CN3CC=CC3)c2)cc(-c2ccccc2O)nc1N [Example 4-14] | 5.00 to 6.00 | 5.70 to 6.30 | 
4 | N#Cc1c(-c2cccc(NC(=O)C(O)CCC(=O)O)c2)cc(-c2ncccc2O)nc1N (centres unmarked) [Example 1-22] | < 5.00 | 5.70 to 6.30 | 
5 | CN(C)[C@H]1CCN(c2ccc(-c3cc(-c4ccccc4O)nc(N)c3C#N)cc2NC(=O)CNCC2CC2)C1 [Example 3-14] | 5.00 to 6.00 | > 6.30 | 
6 | N#Cc1c(-c2cccc(NC(=O)C3CCC(=O)O3)c2)cc(-c2ccccc2O)nc1N (centres unmarked) [Example 1-1, N-{3-[2-amino-3-cyano-6-(2-hydroxyphenyl)-4-pyridinyl]phenyl}-5-oxotetrahydro-2-furancarboxamide] |  | 5.70 to 6.30 | 5.00 to 6.00
7 | N#Cc1c(-c2cccc(NC(=O)CCCC(=O)O)c2)cc(-c2ccccc2O)nc1N [Example 1-19] | < 5.00 | 5.70 to 6.30 | 
8 | COCCNCC(=O)Nc1cc(-c2cc(-c3ccccc3O)nc(N)c2C#N)ccc1OCC1CC1 [Example 4-32] | 5.00 to 6.00 | 5.00 to 5.70 | 
9 | N#Cc1c(-c2cccc(N)c2)cc(-c2ncccc2O)nc1N [Example 1-21] | 5.00 to 6.00 | 5.00 to 5.70 | 
10 | N#Cc1c(-c2cccc(NC(=O)C3CCC(=O)O3)c2)cc(-c2ncccc2O)nc1N (centres unmarked) [Example 1-20] | < 5.00 | 5.00 to 5.70 | 
11 | N#Cc1c(-c2cccc(NC(=O)CCN3CCCCC3)c2)cc(-c2ncccc2O)nc1N [Example 2-17] | < 5.00 | 5.70 to 6.30 | 
12 | N#Cc1c(-c2cccc(NC(=O)CN3CCNCC3)c2)cc(-c2ccccc2O)nc1N [Example 4-07] | 5.00 to 6.00 | 5.70 to 6.30 | 
13 | N#Cc1c(-c2cccc(NC(=O)CNC3CCCC3)c2)cc(-c2ccccc2O)nc1N [Example 4-17] | 5.00 to 6.00 | 5.70 to 6.30 | 
14 | COc1ccc(O)c(-c2cc(-c3cccc(NC(=O)C(O)CCC(=O)O)c3)c(C#N)c(N)n2)c1 (centres unmarked) [Example 1-18] | < 5.00 | 5.00 to 5.70 | 
15 | N#Cc1c(-c2cccc(NC(=O)CN3CCCC3)c2)cc(-c2ccccc2O)nc1N [Example 4-23] | 5.00 to 6.00 | 5.70 to 6.30 | 
16 | CC(=O)Nc1ccc(-c2cc(-c3ccccc3O)nc(N)c2C#N)cc1O [Example 2-16] | 5.00 to 6.00 | > 6.30 | 
17 | CN(C)CC(=O)Nc1cccc(-c2cc(-c3ccccc3O)nc(N)c2C#N)c1 [Example 4-22] | 5.00 to 6.00 | 5.70 to 6.30 | 

Row | Structure (SMILES) | pIC50 ([1]; Homo sapiens, A549, 24 h) | pIC50 (human IKK-β) | pIC50 ([1]; 24 hrs)
18 | CC(=O)Nc1nc(-c2ccccc2O)cc(-c2cccc(NC(=O)CCN3CCCCC3)c2)c1C#N [Example 2-06] | < 5.00 | < 5.00 | 
19 | CC(=O)Nc1cccc(-c2cc(-c3ccccc3O)nc(N)c2C#N)c1 [Example 1-14] | < 5.00 | < 5.00 | 
20 | CN(C)c1ccc(NC(=O)CCN2CCCCC2)cc1-c1cc(-c2ccccc2O)nc(N)c1C#N [Example 3-09] | 5.00 to 6.00 | 5.00 to 5.70 | 
21 | N#Cc1c(-c2ccc(N3CCC(N)C3)c(NC(=O)CCN)c2)cc(-c2ccccc2O)nc1N (centres unmarked) [Example 3-02] | 5.00 to 6.00 | > 6.30 | 
22 | N#Cc1c(-c2ccccc2C(=O)O)cc(-c2ccccc2O)nc1N [Example 5-05] | < 5.00 | 5.70 to 6.30 | 
23 | N#Cc1c(-c2ccc(C(=O)NCCN3CCCCC3)cc2)cc(-c2ccccc2O)nc1N [Example 6-02] | < 5.00 | 5.70 to 6.30 | 
24 | Nc1cccc(-c2cc(-c3ccccc3O)nc(N)c2C(=O)O)c1 [Example 7-1, Sodium 2-amino-4-(3-aminophenyl)-6-(2-hydroxyphenyl)nicotinate] | < 5.00 | 5.00 to 5.70 | 
25 | N#Cc1c(-c2cc(NC(=O)CCN3CCCCC3)ccc2F)cc(-c2ccccc2O)nc1N [Example 2-14] | 5.00 to 6.00 | 5.70 to 6.30 | 
26 | N#Cc1c(-c2cccc(N)c2)cc(-c2ccccc2O)nc1N [Example 1-08] |  | < 5.00 | < 5.00
27 | N#Cc1c(-c2cccc(NC(=O)CCN3CCCC(C(=O)O)C3)c2)cc(-c2ccccc2O)nc1N (centres unmarked) [Example 4-29] | < 5.00 | 5.70 to 6.30 | 
28 | N#Cc1c(-c2ccc(Cl)c(N)c2)cc(-c2ccccc2O)nc1N [Example 2-19] | 5.00 to 6.00 | < 5.00 | 
29 | N#Cc1c(-c2ccc(OCC3CC3)c(NC(=O)CNCC3CC3)c2)cc(-c2ccccc2O)nc1N [Example 4-34] | 5.00 to 6.00 | < 5.00 | 
30 | NC(=O)c1c(-c2cccc(NC(=O)C(O)CCC(=O)O)c2)cc(-c2ccccc2O)nc1N (centres unmarked) [Example 7-2, Sodium 5-({3-[2-amino-3-(aminocarbonyl)-6-(2-hydroxyphenyl)-4-pyridinyl]-phenyl}amino)-4-hydroxy-5-oxopentanoate] | < 5.00 | 5.00 to 5.70 | 
31 | Nc1nc(-c2ccccc2O)cc(-c2cccc(NC(=O)CCN3CCCCC3)c2)c1CO [Example 7-3, N-{3-[2-amino-3-(hydroxymethyl)-6-(2-hydroxyphenyl)-4-pyridinyl]phenyl}-3-(1-piperidinyl)propanamide] | 5.00 to 6.00 | 5.70 to 6.30 | 
32 | N#Cc1c(-c2ccc(N3CCCC3)c(NC(=O)CCN)c2)cc(-c2ccccc2O)nc1N [Example 3-04] | 5.00 to 6.00 | > 6.30 | 
33 | N#Cc1c(-c2cccc(NC(=O)CCN3CCN(Cc4ccccc4)CC3)c2)cc(-c2ccccc2O)nc1N [Example 4-11] | 5.00 to 6.00 | 5.00 to 5.70 | 
34 | N#Cc1c(-c2cccc(NC(=O)C3CCC(=O)O3)c2)cc(-c2ccccc2O)nc1N (centres unmarked) [Example 1-03] |  | 5.70 to 6.30 | < 5.00
